The experiment has as its target human ACC2 (Homo sapiens (Human), UniProt O00763). The experiment can be described thus: ACC2 assay (spectrophotometric 384 well assay, NADH-linked kinetic method). The following applies: hACC2 construct lacking the 128 N-terminal amino acids; 25° C., 340 nm over 15 minutes. The format is biochemical. The procedure: Spectrophotometric 384 Well Assay
Malonyl CoA formation by acetyl CoA carboxylases is stoichometrically linked to the consumption of ATP. ACC2 activity is measured in a NADH-linked kinetic method measuring ADP generated during the ACC reaction using a coupled lactate dehydrogenase/pyruvate kinase reaction.
The protein is then expressed in insect cells using a baculoviral expression system. Protein purification is performed by anion exchange.
All compounds are dissolved in dimethyl sulfoxide (DMSO) to a concentration of 10 mM.
The enzymatic reaction is then started by addition of a mixture of NADH, acetyl
Coenzyme A (both […].) and ATP (500 uM f.c.). The decrease of the optical density (slope S) is then determined at 25° C. at a wavelength of 340 nm over 15 minutes in a spectrophotometric reader.
Each assay microtiter plate contains wells with vehicle instead of compound as controls for the non-inhibited enzyme (100% CTL; ‘HIGH’) and wells without acetyl-CoA as controls for non-specific NADH degradation (0% CTL; ‘LOW’).
Sequence of human ACC2 (O00763 129-2458): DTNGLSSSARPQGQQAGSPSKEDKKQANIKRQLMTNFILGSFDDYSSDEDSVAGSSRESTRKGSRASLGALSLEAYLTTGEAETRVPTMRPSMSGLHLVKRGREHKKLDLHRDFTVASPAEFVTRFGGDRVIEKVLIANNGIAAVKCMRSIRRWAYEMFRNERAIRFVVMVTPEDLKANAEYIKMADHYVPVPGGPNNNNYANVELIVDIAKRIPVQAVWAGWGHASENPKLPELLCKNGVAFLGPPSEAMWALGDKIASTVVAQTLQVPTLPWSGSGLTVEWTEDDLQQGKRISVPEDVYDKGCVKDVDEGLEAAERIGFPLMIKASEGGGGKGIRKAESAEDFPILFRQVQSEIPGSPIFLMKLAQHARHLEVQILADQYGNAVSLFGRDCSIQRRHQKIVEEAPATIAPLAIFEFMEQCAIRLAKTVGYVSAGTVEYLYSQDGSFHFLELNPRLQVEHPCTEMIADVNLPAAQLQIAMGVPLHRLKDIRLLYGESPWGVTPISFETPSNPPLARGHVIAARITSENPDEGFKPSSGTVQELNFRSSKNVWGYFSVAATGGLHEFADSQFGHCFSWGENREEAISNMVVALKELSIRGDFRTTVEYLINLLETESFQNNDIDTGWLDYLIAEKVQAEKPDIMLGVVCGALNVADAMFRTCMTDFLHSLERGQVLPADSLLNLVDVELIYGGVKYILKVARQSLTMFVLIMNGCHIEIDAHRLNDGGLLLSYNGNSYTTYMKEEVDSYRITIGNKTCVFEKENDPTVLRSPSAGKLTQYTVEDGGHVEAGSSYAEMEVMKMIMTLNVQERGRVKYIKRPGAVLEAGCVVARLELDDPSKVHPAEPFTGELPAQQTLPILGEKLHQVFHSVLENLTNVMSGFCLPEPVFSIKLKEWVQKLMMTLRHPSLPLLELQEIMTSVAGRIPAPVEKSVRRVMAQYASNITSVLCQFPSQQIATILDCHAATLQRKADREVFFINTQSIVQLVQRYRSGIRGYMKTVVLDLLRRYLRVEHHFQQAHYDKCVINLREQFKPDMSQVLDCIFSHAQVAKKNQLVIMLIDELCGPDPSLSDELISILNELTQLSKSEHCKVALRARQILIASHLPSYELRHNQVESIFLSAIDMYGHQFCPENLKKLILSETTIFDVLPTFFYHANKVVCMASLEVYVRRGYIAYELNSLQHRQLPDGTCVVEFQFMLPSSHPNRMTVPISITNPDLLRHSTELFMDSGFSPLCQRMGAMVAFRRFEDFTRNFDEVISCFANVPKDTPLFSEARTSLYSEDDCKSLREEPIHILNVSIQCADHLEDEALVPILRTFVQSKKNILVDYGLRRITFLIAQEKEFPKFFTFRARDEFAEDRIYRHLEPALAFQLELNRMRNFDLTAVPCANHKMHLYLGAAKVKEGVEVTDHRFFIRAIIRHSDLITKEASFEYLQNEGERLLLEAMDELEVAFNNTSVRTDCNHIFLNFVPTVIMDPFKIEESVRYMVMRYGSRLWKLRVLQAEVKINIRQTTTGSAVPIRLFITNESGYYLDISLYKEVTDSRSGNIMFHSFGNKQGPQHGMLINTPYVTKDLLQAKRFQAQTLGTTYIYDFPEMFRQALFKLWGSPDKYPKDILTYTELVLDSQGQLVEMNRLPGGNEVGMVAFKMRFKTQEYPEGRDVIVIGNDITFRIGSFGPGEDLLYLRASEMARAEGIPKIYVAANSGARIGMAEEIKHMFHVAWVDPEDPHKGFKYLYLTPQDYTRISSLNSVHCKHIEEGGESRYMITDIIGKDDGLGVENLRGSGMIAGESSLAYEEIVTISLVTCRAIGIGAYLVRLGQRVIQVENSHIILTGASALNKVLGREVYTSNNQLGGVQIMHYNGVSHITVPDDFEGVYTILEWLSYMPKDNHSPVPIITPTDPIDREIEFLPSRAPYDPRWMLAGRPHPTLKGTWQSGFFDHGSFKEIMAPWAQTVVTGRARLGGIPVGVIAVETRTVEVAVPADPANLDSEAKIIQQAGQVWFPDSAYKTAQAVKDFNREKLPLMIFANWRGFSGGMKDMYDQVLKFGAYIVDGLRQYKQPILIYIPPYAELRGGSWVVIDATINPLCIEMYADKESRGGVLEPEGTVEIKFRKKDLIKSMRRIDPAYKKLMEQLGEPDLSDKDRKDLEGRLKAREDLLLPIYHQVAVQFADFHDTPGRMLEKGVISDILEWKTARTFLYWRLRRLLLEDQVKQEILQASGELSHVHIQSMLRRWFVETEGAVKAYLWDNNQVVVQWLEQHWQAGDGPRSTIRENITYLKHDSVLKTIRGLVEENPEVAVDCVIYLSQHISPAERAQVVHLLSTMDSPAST
For orientation: IC50 means the point on the concentration scale where inhibition reaches its midpoint. Compound `CC(C(=O)Nc1cccnc1)c1ccc(O[C@@H]2CCN(c3nc(N(C)C)ncc3F)C2)cc1` (stereo partly drawn) [Example 3.6] registered an IC50 of 352 nM.

`CCNC(=O)C(C)c1ccc(O[C@@H]2CCN(c3ncnc(OCC(C)(C)O)c3Cl)C2)cc1` (single isomer, unassigned) [6.3 isomer 2] had an IC50 of 1100 nM.

`CCCNc1nccc(N2CC[C@@H](Oc3ccc(C(C)C(=O)Nc4cccnc4)cc3)C2)c1F` (stereo partly drawn) [Example 1.35] gave a half-inhibitory concentration (IC50) of 410 nM. In the case of `CCNC(=O)C(C)c1ccc(O[C@@H]2CCN(c3cccc(C(F)(F)F)n3)C2)cc1` (stereo partly drawn) [Example 7.9] it was 315 nM. Next, `CCNC(=O)C(C)c1ccc(O[C@@H]2CCN(c3ccc(OC4CC4)cn3)C2)cc1` (stereo partly drawn) [Example 8.4]: 910 nM; `CCNC(=O)C(C)c1ccc(O[C@@H]2CCN(c3ccc(F)c(C(F)(F)F)c3)C2)cc1` (stereo partly drawn) [Example 7.6]: 229 nM. Next, `CC(C(=O)NC[C@@H](C)O)c1ccc(O[C@@H]2CCN(c3ccc(OCC4CC4(F)F)cn3)C2)cc1` (stereo partly drawn) [Example 1.88]: 1780 nM; `CC(C(=O)NC1CCOCC1)c1ccc(O[C@@H]2CCN(c3ncnc(OCC(C)(C)O)c3Cl)C2)cc1` (stereo partly drawn) [Example 1.91]: 2920 nM. As for `CCCNc1nccc(N2CC[C@@H](Oc3ccc(C(C)C(=O)NCC)cc3)C2)c1F` (stereo partly drawn) [Example 1.11], the IC50 is 213 nM. Regarding `CC(C)NC(=O)C(C)c1ccc(O[C@@H]2CCN(c3ccc(OCC4CC4(F)F)cn3)C2)cc1` (stereo partly drawn) [Example 1.63], the IC50 is 652 nM. Next, `CCCNC(=O)C(C)c1ccc(O[C@@H]2CCN(c3ccc(OCC4CC4(F)F)cn3)C2)cc1` (stereo partly drawn) [Example 1.52]: 533 nM. Take `CCCNc1nccc(N2CC[C@@H](Oc3ccc(C(C)C(=O)NC4CC4C)cc3)C2)c1F` (single isomer, unassigned) [Example 1.3]: the midpoint of inhibition, the IC50, lay at 101 nM.

Compound `CC(C(=O)NC1CC1C)c1ccc(O[C@@H]2CCN(c3nc(N(C)C)ncc3F)C2)cc1` (single isomer, unassigned) [6.2 isomer 2] yielded an IC50 of 177 nM. For the compound `CCCNc1nccc(N2CC[C@@H](Oc3ccc(C(C)C(=O)NC(C)C)cc3)C2)c1F` (stereo partly drawn) [Example 1.24], the IC50 amounted to 319 nM.

Compound `CC(C(=O)N[C@H](C)CO)c1ccc(O[C@@H]2CCN(c3ccc(OCC4CC4(F)F)cn3)C2)cc1` (stereo partly drawn) [Example 1.57] returned an IC50 of 591 nM.

As for `CCCNc1nccc(N2CC[C@@H](Oc3ccc(C(C)C(=O)NC4COC4)cc3)C2)c1F` (stereo partly drawn) [Example 1.61], the half-inhibitory concentration (IC50) stood at 626 nM. In the case of `CCNC(=O)C(C)c1ccc(O[C@@H]2CCN(c3ccc(OCC4CC4)cc3)C2)cc1` (stereo partly drawn) [Example 7.8] it was 274 nM; in that of `CCNC(=O)C(C)c1ccc(O[C@@H]2CCN(c3nc(N(C)C)ncc3F)C2)cc1` (stereo partly drawn) [Example 1.27], 345 nM; in that of `CCNC(=O)C(C)c1ccc(O[C@@H]2CCN(c3ccc(F)c(C)n3)C2)cc1` (stereo partly drawn) [Example 7.27], 563 nM.

`CC(C(=O)NC1CC1)c1ccc(O[C@@H]2CCN(c3ncnc(OCC(C)(F)F)c3F)C2)cc1` (stereo partly drawn) [Example 1.5]: the IC50 worked out at 133 nM. Next, `CC(C(=O)NCCF)c1ccc(O[C@@H]2CCN(c3ncnc(OCC(C)(C)O)c3Cl)C2)cc1` (stereo partly drawn) [Example 1.54]: 547 nM; `CCNC(=O)C(C)c1ccc(O[C@@H]2CCN(c3ccc(OCCC4CC4)cc3)C2)cc1` (stereo partly drawn) [Example 7.21]: 454 nM. In the case of `C=C(C)CNC(=O)C(C)c1ccc(O[C@@H]2CCN(c3ncnc(OCC(C)(F)F)c3F)C2)cc1` (stereo partly drawn) [Example 1.53] it was 538 nM; in that of `CC[C@@H](C)NC(=O)C(C)c1ccc(O[C@@H]2CCN(c3ccc(OCC4CC4(F)F)cn3)C2)cc1` (stereo partly drawn) [Example 1.58], 598 nM; in that of `CCCNc1nccc(N2CC[C@@H](Oc3ccc(C(C)C(=O)NC4CCC4)cc3)C2)c1F` (stereo partly drawn) [Example 1.41], 438 nM.

In the case of `CCNC(=O)C(C)c1ccc(O[C@@H]2CCN(c3nc(C)ccc3F)C2)cc1` (stereo partly drawn) [Example 7.25], the IC50 stood at 500 nM. Next, `CCNC(=O)C(C)c1ccc(O[C@@H]2CCN(c3ncc(OCC4CC4(F)F)cn3)C2)cc1` (stereo partly drawn) [Example 9.1, 2-(4-(1-[5-(2,2-Difluoro-cyclopropylmethoxy)-pyrimidin-2-yl]-(R)-pyrrolidin-3-yloxy)-phenyl)-N-ethyl-propionamide]: 444 nM; `CCNC(=O)C(C)c1ccc(O[C@@H]2CCN(c3cccc(C(F)F)n3)C2)cc1` (stereo partly drawn) [Example 7.15]: 408 nM; `CCCNc1nccc(N2CC[C@@H](Oc3ccc(C(C)C(=O)NCCF)cc3)C2)c1F` (stereo partly drawn) [Example 1.19]: 296 nM.

As to `CCNC(=O)C(C)c1ccc(O[C@@H]2CCN(c3ncnc(OCC(C)(C)O)c3Cl)C2)cc1` (stereo partly drawn) [Example 1.17], the IC50 turned out to be 272 nM.

`CCCN(C)c1nccc(N2CC[C@@H](Oc3ccc(C(C)C(=O)NCC)cc3)C2)n1` (stereo partly drawn) [Example 2.3]: half-maximal inhibition (IC50) was put at 188 nM. In the case of `CCCNc1ncnc(N2CC[C@@H](Oc3ccc(C(C)C(=O)NC4CC4C)cc3)C2)c1F` (stereo partly drawn) [Example 3.9] it was 739 nM; in that of `CC(C(=O)NC1CC1C)c1ccc(O[C@@H]2CCN(c3nc(N(C)C)ncc3F)C2)cc1` (single isomer, unassigned) [6.2 isomer 1], 86 nM. The compound `CCCNc1ncnc(N2CC[C@@H](Oc3ccc(C(C)C(=O)NC4CC4)cc3)C2)c1F` (stereo partly drawn) [Example 3.3] had an IC50 of 280 nM. Compound `CCNC(=O)C(C)c1ccc(O[C@@H]2CCN(c3cc(C(F)(F)F)ccc3C)C2)cc1` (stereo partly drawn) [Example 7.11] came in with a half-maximal inhibitory concentration (IC50) of 365 nM. `CCNC(=O)C(C)c1ccc(O[C@@H]2CCN(c3ccnc(N4CCOCC4)n3)C2)cc1` (stereo partly drawn) [Example 2.6] yielded an IC50 of 808 nM.

`CCNC(=O)C(C)c1ccc(O[C@@H]2CCN(c3ccnc(N(C)CC)n3)C2)cc1` (stereo partly drawn) [Example 2.2] returned an IC50 of 179 nM.

Compound `CC(C(=O)NC1CCC1)c1ccc(O[C@@H]2CCN(c3nc(N(C)C)ncc3F)C2)cc1` (stereo partly drawn) [Example 1.78] had an IC50 of 878 nM. In the case of `CC(C(=O)NCC(F)F)c1ccc(O[C@@H]2CCN(c3ncnc(OCC(C)(C)O)c3Cl)C2)cc1` (single isomer, unassigned) [6.5 isomer 1] it was 135 nM; in that of `CCNC(=O)C(C)c1ccc(O[C@@H]2CCN(c3ccc(OC(C)C)cc3)C2)cc1` (stereo partly drawn) [Example 7.22], 455 nM; in that of `CC(C)NC(=O)C(C)c1ccc(O[C@@H]2CCN(c3nc(N(C)C)ncc3F)C2)cc1` (stereo partly drawn) [Example 1.81], 934 nM.

The compound `CC(C(=O)NC1CC1)c1ccc(O[C@@H]2CCN(c3ncnc(OCC(C)(C)O)c3F)C2)cc1` (stereo partly drawn) [Example 3.1, N-Cyclopropyl-2-(4-(1-[5-fluoro-6-(2-hydroxy-2-methyl-propoxy)-pyrimidin-4-yl]-(R)-pyrrolidin-3-yloxy)-phenyl)-propionamide] showed an IC50 of 235 nM. As for `CC(CO)NC(=O)C(C)c1ccc(O[C@@H]2CCN(c3nc(N(C)C)ncc3F)C2)cc1` (stereo partly drawn) [Example 1.77], the half-maximal inhibitory concentration (IC50) was found to be 849 nM. Next, `C#CC(C)NC(=O)C(C)c1ccc(O[C@@H]2CCN(c3ccnc(NCCC)c3F)C2)cc1` (stereo partly drawn) [Example 1.90]: 2230 nM. Next, `CCCNc1nccc(N2CC[C@@H](Oc3ccc(C(C)C(=O)N[C@H](C)CC)cc3)C2)c1F` (stereo partly drawn) [Example 1.29]: 367 nM. Next, `CC(C(=O)NC1CC1C)c1ccc(O[C@@H]2CCN(c3nc(N(C)C)ncc3F)C2)cc1` (single isomer, unassigned) [6.2 isomer 3]: 219 nM; `CC(C(=O)NCC(F)F)c1ccc(O[C@@H]2CCN(c3ncnc(OCC(C)(C)O)c3Cl)C2)cc1` (single isomer, unassigned) [6.5 isomer 2]: 872 nM.

For the compound `CC(C(=O)NCC(F)(F)F)c1ccc(O[C@@H]2CCN(c3ncnc(OCC(C)(C)O)c3Cl)C2)cc1` (stereo partly drawn) [Example 1.74], the half-inhibitory concentration (IC50) was 813 nM. Next, `CCCNc1nccc(N2CC[C@@H](Oc3ccc(C(C)C(=O)NCC(F)F)cc3)C2)c1F` (stereo partly drawn) [Example 1.21]: 309 nM; `CC(C(=O)NC[C@H](C)O)c1ccc(O[C@@H]2CCN(c3ccc(OCC4CC4(F)F)cn3)C2)cc1` (stereo partly drawn) [Example 1.89]: 1880 nM; `CCNC(=O)C(C)c1ccc(O[C@@H]2CCN(c3ccnc(N(C)C4CC4)n3)C2)cc1` (stereo partly drawn) [Example 2.5]: 575 nM. The compound `CC(C(=O)NCC(F)F)c1ccc(O[C@@H]2CCN(c3nc(N(C)C)ncc3F)C2)cc1` (stereo partly drawn) [Example 1.43] yielded an IC50 of 443 nM. For `CCCNC(=O)C(C)c1ccc(O[C@@H]2CCN(c3nc(N(C)C)ncc3F)C2)cc1` (stereo partly drawn) [Example 1.65], it took 667 nM to reach half-maximal inhibition (IC50). `CCCNC(=O)C(C)c1ccc(O[C@@H]2CCN(c3ncnc(OCC(C)(C)O)c3Cl)C2)cc1` (stereo partly drawn) [Example 1.40] had a half-inhibitory concentration (IC50) of 437 nM. For the compound `CCNC(=O)C(C)c1ccc(O[C@@H]2CCN(c3ccnc(N4CCC(F)(F)C4)n3)C2)cc1` (stereo partly drawn) [Example 2.4], it took 399 nM to reach half-maximal inhibition (IC50). In turn, `C=CCNC(=O)C(C)c1ccc(O[C@@H]2CCN(c3ccc(OCC4CC4(F)F)cn3)C2)cc1` (stereo partly drawn) [Example 1.31] registered an IC50 of 381 nM. As for `CCNC(=O)C(C)c1ccc(O[C@@H]2CCN(c3cccc(C)n3)C2)cc1` (stereo partly drawn) [Example 7.33], the IC50 stood at 821 nM. Regarding `CCNC(=O)C(C)c1ccc(O[C@@H]2CCN(c3cccc(Cl)c3)C2)cc1` (stereo partly drawn) [Example 7.19], the midpoint of inhibition, the IC50, lay at 435 nM. In the case of `CC(C(=O)NCC(F)(F)F)c1ccc(O[C@@H]2CCN(c3ccc(OCC4CC4(F)F)cn3)C2)cc1` (stereo partly drawn) [Example 1.62] it was 637 nM. Regarding `CNC(=O)C(C)c1ccc(O[C@@H]2CCN(c3ccc(OCC4CC4(F)F)cn3)C2)cc1` (stereo partly drawn) [Example 1.28], the IC50 was found to be 346 nM.
